pIC50: −log10 of the molar value.
Tests used:
[1] = target: ROCK2 (Homo sapiens, UniProt O75116); experiment: ROCK2 kinase IC50 assay (CISBIO HTRF KinEASE-STK S2 kit); format: biochemical; details: incubated at room temperature for 2 hours
Method in brief: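 HTRF KinEASE-STK S2 format with recombinant ROCK2 (1.4 ng per well), STK-S2 substrate and ATP from 5× working solutions of 1.5 μM each, run 2 h at room temperature. Nine-point dilutions from 10000 nM top concentration; 665/615 nm emission ratio normalised to no-compound and no-kinase controls, curve-fitted for IC50.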

[2] = target: ROCK1 (Homo sapiens (Human), UniProt Q13464); experiment: ROCK1 kinase IC50 assay (biological test method similar to the ROCK2 assay); format: biochemical
Sequence of ROCK1 (Q13464 whole entry, species assumed): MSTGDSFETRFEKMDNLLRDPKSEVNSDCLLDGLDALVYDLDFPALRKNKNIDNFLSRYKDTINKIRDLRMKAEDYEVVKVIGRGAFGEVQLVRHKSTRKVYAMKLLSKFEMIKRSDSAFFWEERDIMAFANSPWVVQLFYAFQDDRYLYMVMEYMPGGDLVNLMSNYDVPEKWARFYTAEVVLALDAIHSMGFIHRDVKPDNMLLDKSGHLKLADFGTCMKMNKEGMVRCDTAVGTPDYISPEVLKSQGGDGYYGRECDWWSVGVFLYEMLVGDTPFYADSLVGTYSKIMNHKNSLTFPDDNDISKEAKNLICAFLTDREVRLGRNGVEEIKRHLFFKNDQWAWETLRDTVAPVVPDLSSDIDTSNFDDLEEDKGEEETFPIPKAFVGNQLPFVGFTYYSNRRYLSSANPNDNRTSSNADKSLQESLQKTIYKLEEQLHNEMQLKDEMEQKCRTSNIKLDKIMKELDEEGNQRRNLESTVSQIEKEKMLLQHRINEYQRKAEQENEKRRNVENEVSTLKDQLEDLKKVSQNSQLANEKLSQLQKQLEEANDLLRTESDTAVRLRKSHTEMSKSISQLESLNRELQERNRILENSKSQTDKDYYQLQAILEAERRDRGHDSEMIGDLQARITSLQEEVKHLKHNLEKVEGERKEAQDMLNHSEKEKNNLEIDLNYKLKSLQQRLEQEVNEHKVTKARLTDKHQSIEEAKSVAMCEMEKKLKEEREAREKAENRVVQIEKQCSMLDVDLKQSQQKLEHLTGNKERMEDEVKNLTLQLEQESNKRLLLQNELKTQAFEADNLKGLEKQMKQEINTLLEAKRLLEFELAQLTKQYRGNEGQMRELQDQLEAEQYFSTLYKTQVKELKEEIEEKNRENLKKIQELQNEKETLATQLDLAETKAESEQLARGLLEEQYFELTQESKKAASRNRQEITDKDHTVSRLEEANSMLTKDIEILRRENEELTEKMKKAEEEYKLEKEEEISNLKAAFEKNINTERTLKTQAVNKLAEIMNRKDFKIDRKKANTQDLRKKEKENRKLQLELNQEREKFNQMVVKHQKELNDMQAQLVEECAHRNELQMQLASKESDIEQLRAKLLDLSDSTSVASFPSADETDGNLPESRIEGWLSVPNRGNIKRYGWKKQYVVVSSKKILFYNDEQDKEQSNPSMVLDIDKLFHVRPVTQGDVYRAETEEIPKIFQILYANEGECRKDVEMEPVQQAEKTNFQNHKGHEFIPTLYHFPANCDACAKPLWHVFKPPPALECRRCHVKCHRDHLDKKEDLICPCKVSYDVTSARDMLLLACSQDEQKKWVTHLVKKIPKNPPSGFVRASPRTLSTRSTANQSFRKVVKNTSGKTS
Method in brief: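 HTRF KinEASE-STK S2 assay with the STK-S2 biotinylated substrate and ATP, at 5× working solutions of 1.5 µM each. Kinase reaction with 9-point compound dilutions ran 2 h at room temperature, followed by 1 h streptavidin-XL665/Cryptate detection. The 665/615 nm ratio was normalised to no-compound and no-kinase wells, and IC50 was obtained by curve fitting.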

SMILES | pIC50 [1] | pIC50 [2]
Cn1c(C(=O)N2C[C@@H](F)[C@H](Br)C2)cc2ccc(-c3nccc(Nc4ccc(-c5cn[nH]c5)cc4)n3)cc21 [TDI01519, (6-(4-((4-(1H-py razol-4-yl)phenyl)amino)pyrimidin-2-yl)-1-methyl-1H-indol-2-yl)((3R,4R)-3-bromo-4-fluoropyrrolidin-1-yl)methanone] | 6.99 | 5.28
Cn1c(C(=O)N2CC(F)(F)C2)cc2ccc(-c3ncnc(Nc4ccc(-c5cn[nH]c5)cc4)n3)cc21 [TDI01532, (6-(4-((4-(1H-pyrazol-4-yl)phenyl)amino)-1,3,5-triazin-2-yl)-1-methyl-1H-indol-2-yl)(3,3-difluoroazetidin-1-yl)methanone] | 7.31 | < 5.00
O=C(C1CC(F)(F)C1)N1Cc2ccc(-c3ncnc(Nc4ccc(-c5cn[nH]c5)cc4)n3)cc2C1 [TDI01536, (5-(4-((4-(1H-pyrazol-4-yl)phenyl)amino)-1,3,5-triazin-2-yl)isoindolin-2-yl)(3,3-difluorocyclobutyl)methanone] | 6.98 | < 5.00
Cn1c(C(=O)N2CC(C(F)(F)F)C2)cc2ccc(-c3nccc(Nc4ccc(-c5cn[nH]c5)cc4)n3)cc21 [TDI01538, (6-(4-((4-(1H-pyrazol-4-yl)phenyl)amino)pyrimidin-2-yl)-1-methyl-1H-indol-2-yl)(3-(trifluoromethyl)azetidin-1-yl)methanone] | 6.70 | 5.31
O=C(C1CC2(CCNCC2)C1)N1Cc2ccc(-c3nccc(Nc4ccc(-c5cn[nH]c5)cc4)n3)cc2C1 [TDI01546, (5-(4-((4-(1H-pyrazol-4-yl)phenyl)amino)pyrimidin-2-yl)isoindolin-2-yl)(7-azaspiro[3.5]nonan-2-yl)methanone] | 7.59 | 5.81
O=C(OC1CCNC1)N1Cc2ccc(-c3nccc(Nc4ccc(-c5cn[nH]c5)cc4)n3)cc2C1 (centres unmarked) [TDI01551, pyrrolidin-3-yl 5-(4-((4-(1H-pyrazol-4-yl)phenyl)amino)pyrimidin-2-yl)isoindoline-2-carboxylate] | 7.51 | 5.76
CN1CCC(OC(=O)N2Cc3ccc(-c4nccc(Nc5ccc(-c6cn[nH]c6)cc5)n4)cc3C2)C1 (centres unmarked) [TDI01552, 1-methylpyrrolidin-3-yl5-(4-((4-(1H-pyrazol-4-yl)phenyl)amino)pyrimidin-2-yl)isoindoline-2-carboxylate] | 7.29 | 5.53
O=C(N1CCN(C2COC2)CC1)N1Cc2ccc(-c3nccc(Nc4ccc(-c5cn[nH]c5)cc4)n3)cc2C1 [TDI01555, (5-(4-((4-(1H-pyrazol-4-yl)phenyl)amino)pyrimidin-2-yl)isoindolin-2-yl)(4-(oxetan-3-yl)piperazin-1-yl)methanone] | 6.85 | < 5.00
O=C(C1CCOCC1)N1Cc2ccc(-c3nccc(Nc4ccc(-c5cn[nH]c5)cc4)n3)cc2C1 [TDI01560, (5-(4-((4-(1H-pyrazol-4-yl)phenyl)amino)pyrimidin-2-yl)isoindolin-2-yl)(tetrahydro-2H-pyran-4-yl)methanone] | 7.08 | < 5.00
O=C(C1CC(F)(F)C1)N1Cc2ccc(-c3nc(Nc4ccc(-c5cn[nH]c5)cc4)c4cc[nH]c4n3)cc2C1 [TDI01565, (5-(4-((4-(1H-pyrazol-4-yl)phenyl)amino)-7H-pyrrolo[2,3-d]pyrimidin-2-yl)isoindolin-2-yl)(3,3-difluorocyclobutyl)methanone] | 7.24 | < 5.00
NC(=O)c1cnc(-c2ccc3c(c2)CN(C(=O)C2CC(F)(F)C2)C3)nc1Nc1ccc(-c2cn[nH]c2)cc1 [TDI01567, 4-((4-(1H-pyrazol-4-yl)phenyl)amino)-2-(2-(3,3-difluorocyclobutane-1-carbonyl)isoindolin-5-yl)pyrimidin-5-carboxamide] | 7.19 | < 5.00
CC(=O)N1Cc2nc(-c3ccc4c(c3)CN(C(=O)C3CC(F)(F)C3)C4)nc(Nc3ccc(-c4cn[nH]c4)cc3)c2C1 [TDI01587, 1-(4-((4-(1H-pyrazol-4-yl)phenyl)amino)-2-(2-(3,3-difluorocyclobutane-1-carbonyl)isoindolin-5-yl)-5,7-dihydro-6H-pyrrolo[3,4-d]pyrimidin-6-yl)ethan-1-one] | 7.60 | < 5.00
O=C(CC1CCOC1)N1Cc2ccc(-c3nccc(Nc4ccc(-c5cn[nH]c5)cc4)n3)cc2C1 (centres unmarked) [TDI01597B, 1-(5-(4-((4-(1H-pyrazol-4-yl)phenyl)amino)pyrimidin-2-yl)isoindolin-2-yl)-2-(tetrahydrofuran-3-yl)ethan-1-one] | 6.91 | < 5.00

The remaining lines, values ahead:

pIC50 [1] | pIC50 [2] | SMILES
7.11 | 5.52 | Cn1c(C(=O)N2C[C@@H](O)[C@H](F)C2)cc2ccc(-c3nccc(Nc4ccc(-c5cn[nH]c5)cc4)n3)cc21 [TDI01518, (6-(4-((4-(lH-pyrazol-4-yl)phenyl)amino)pyrimidin-2-yl)-1-methyl-1H-indol-2-yl)((3R,4R)-3-fluoro-4-hydroxypyrrolidin-1-yl)methanone]
7.82 | < 5.00 | Cn1c(C(=O)N2C[C@@H](O)[C@@H](F)C2)cc2ccc(-c3nccc(Nc4ccc(-c5cn[nH]c5)cc4)n3)cc21 [TDI01520, (6-(4-((4-(1H-pyrazol-4-yl)phenyl)amino)pyrimidin-2-yl)-1-methyl-1H-indol-2-yl)((3S,4R)-3-fluoro-4-hydroxypyrrolidin-1-yl)methanone]
7.07 | 5.72 | Cn1c(C(=O)N2CC(O)(C(F)(F)F)C2)cc2ccc(-c3nccc(Nc4ccc(-c5cn[nH]c5)cc4)n3)cc21 [TDI01523, (6-(4-((4-(1H-pyrazol-4-yl)phenyl)amino)pyrimidin-2-yl)-1-methyl-1H-indol-2-yl)(3-hydroxy-3-(trifluoromethyl)azetidin-1-yl)methanone]
7.52 | 5.85 | Cn1c(C(=O)N2CC(F)(CF)C2)cc2ccc(-c3nccc(Nc4ccc(-c5cn[nH]c5)cc4)n3)cc21 [TDI01524, (6-(4-((4-(1H-pyrazol-4-yl)phenyl)amino)pyrimidin-2-yl)-1-methyl-1H-indol-2-yl)(3-fluoro-3-(fluoromethyl)azetidin-1-yl)methanone]
6.47 | < 5.00 | O=C(c1cc2ccc(-c3nc(Nc4ccc(-c5cn[nH]c5)cc4)c4sccc4n3)cc2s1)N1CC(F)(F)C1 [TDI01525, (6-(4-((4-(1H-pyrazol-4-yl)phenyl)-amino)thieno-[3,2-d]-pyrimidin-2-yl)benzo[b]-thiophen-2-yl)(3,3-difluoro-azetidin-1-yl)methanone]
7.31 | < 5.00 | CC(C)(C)OC(=O)N1Cc2ccc(-c3nccc(Nc4ccc(-c5cn[nH]c5)cc4)n3)cc2C1 [TDI01557B, tert-butyl 5-(4-((4-(1H-pyrazol-4-yl)phenyl)amino)pyrimidin-2-yl)isoindoline-2-carboxylate]
6.77 | < 5.00 | O=C(OCc1ccccc1)N1Cc2ccc(-c3nccc(Nc4ccc(-c5cn[nH]c5)cc4)n3)cc2C1 [TDI01559, benzyl 5-(4-((4-(1H-pyrazol-4-yl)phenyl)amino)pyrimidin-2-yl)isoindolin-2-carboxylate]
6.69 | < 5.00 | O=C(C1CC(O)C1)N1Cc2ccc(-c3nccc(Nc4ccc(-c5cn[nH]c5)cc4)n3)cc2C1 (centres unmarked) [TDI01561, (5-(4-((4-(1H-pyrazol-4-yl)phenyl)amino)pyrimidin-2-yl)isoindolin-2-yl)(3-hydroxycyclobutyl) methanone]
7.64 | < 5.00 | O=C(OC1CC(F)(F)C1)N1Cc2ccc(-c3nccc(Nc4ccc(-c5cn[nH]c5)cc4)n3)cc2C1 [TDI01562, 3,3-difluorocyclobutyl 5-(4-((4-(1H-pyrazol-4-yl)phenyl)amino)pyrimidin-2-yl)isoindoline-2-carboxylate]
7.54 | < 5.00 | O=C(O)c1cnc(-c2ccc3c(c2)CN(C(=O)C2CC(F)(F)C2)C3)nc1Nc1ccc(-c2cn[nH]c2)cc1 [TDI01567C]
6.77 | < 5.00 | O=C(C1CC(F)(F)C1)N1CCc2ccc(-c3nccc(Nc4ccc5[nH]ncc5c4)n3)cc2C1 [TDI01575, (7-(4-((1H-indazol-5-yl)amino)pyrimidin-2-yl)-3,4-dihydroisoquinolin-2(1H)-yl)(3,3-difluorocyclobutyl) methanone]
7.55 | < 5.00 | O=C(c1cc2ccc(-c3ncnc(Nc4ccc(-c5cn[nH]c5)cc4)n3)cc2[nH]1)N1CC(F)(F)C1 [TDI01581, (6-(4-((4-(1H-pyrazol-4-yl)phenyl)amino)-1,3,5-triazin-2-yl)-1H-indol-2-yl)(3,3-difluoroazetidin-1-yl)methanone]
7.41 | < 5.00 | O=C(C1CC(F)(F)C1)N1Cc2ccc(-c3ncc(F)c(Nc4ccc5[nH]ncc5c4)n3)cc2C1 [TDI01589, (5-(4-((1H-indazol-5-yl)amino)-5-fluoropyrimidin-2-yl)isoindolin-2-yl)(3,3-difluorocyclobutyl)methnone]
6.58 | < 5.00 | O=C1c2cc(-c3ncc(F)c(Nc4ccc(-c5cn[nH]c5)cc4)n3)ccc2CN1CC1CC(F)(F)C1 [TDI01590, 6-(4-((4-(1H-pyrazol-4-yl)phenyl)amino)-5-fluoropyrimidin-2-yl)-2-((3,3-difluorocyclobutyl)methyl)isoindolin-1-one]
6.56 | < 5.00 | O=C(C1CC(F)(F)C1)N1CCc2cc(-c3ncc(F)c(Nc4ccc(-c5cn[nH]c5)cc4)n3)ccc2C1 [TDI01596, (6-(4-((4-(1H-pyrazol-4-yl)phenyl)amino)-5-fluoropyrimidin-2-yl)-3,4-dihydroisoquinolin-2(1H)-yl)(3,3-difluorocyclobutyl)methanone]

From US11390609B2, “Rho-associated protein kinase inhibitor, pharmaceutical composition comprising same, and preparation method and use thereof” (BEIJING TIDE PHARMACEUTICAL CO., LTD., priority 2017, dated 2022)
